Experimental data from patent US10597388B2, “Pyridazinone herbicides” (FMC CORPORATION, priority 2014, dated 2020).

Experiments:
Test in all cases: Test E greenhouse herbicide test, pre- and postemergence
Type in all cases: in vivo
[1] = tested on: surinam grass (Brachiaria decumbens); conditions: Preemergence
In short: (§1)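 Seedlings reaching 2–18 cm (1- to 4-leaf stage) received foliar treatment, while seeds in silt loam received a soil surface spray; the vehicle in each case was a non-phytotoxic solvent mixture including surfactant. Visual scoring versus controls followed 14–21 d later on a 0–100 scale.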

[2] = tested on: dayflower (Virginia (VA) dayflower, Commelina virginica)
In short: as §1

[3] = tested on: crabgrass, large (large crabgrass, Digitaria sanguinalis); conditions: Preemergence
In short: as §1

[4] = tested on: goosegrass (Eleusine indica); conditions: Preemergence
In short: as §1

[5] = tested on: barnyardgrass (Echinochloa crus-galli)
In short: as §1

[6] = tested on: foxtail, giant (giant foxtail, Setaria faberii); conditions: Preemergence
In short: as §1

[7] = tested on: lambsquarters (Chenopodium album); conditions: Preemergence
In short: as §1

[8] = tested on: sandbur (southem sandbur, Cenchrus echinatus)
In short: as §1

[9] = tested on: panicum, fall (fall panicum, Panicum dichotomiflorum)
In short: as §1

[10] = tested on: pigweed, palmer (palmer pigweed, Amaranthus palmeri)
In short: as §1

[11] = tested on: nightshade (eastern black nightshade, Solanum ptycanthum); conditions: Preemergence
In short: as §1

[12] = tested on: horseweed (Conyza canadensis)
In short: as §1

[13] = tested on: momingglory (Ipomoea coccinea); conditions: Preemergence
In short: as §1

[14] = tested on: corn (Zea mays)
In short: as §1

[15] = tested on: velvetleaf (Abutilon theophrasti); conditions: Preemergence
In short: as §1

[16] = tested on: arrowleaf sida (Sida rhombifolia)
In short: as §1

[17] = tested on: ragweed (common ragweed, Ambrosia elatior)
In short: as §1

[18] = 62 g ai/ha, scale 0 to 100 (0 no effect, 100 complete control)
[19] = 125 g ai/ha, scale 0 to 100 (0 no effect, 100 complete control)
[20] = 31 g ai/ha, scale 0 to 100, 0 no effect, 100 complete control
[21] = 250 g ai/ha, visual, scale 0 no effect to 100 complete control
[22] = 62 g ai/ha, Postemergence, scale 0 to 100 (0 no effect, 100 complete control)
[23] = 62 g ai/ha, Preemergence, scale 0 to 100 (0 no effect, 100 complete control)
[24] = 125 g ai/ha, Postemergence, scale 0 to 100 (0 no effect, 100 complete control)
[25] = 125 g ai/ha, Preemergence, scale 0 to 100 (0 no effect, 100 complete control)
[26] = 250 g ai/ha, Postemergence, scale 0 to 100 (0 no effect, 100 complete control)
[27] = Postemergence, 31 g ai/ha, visual, scale 0 no effect to 100 complete control
[28] = Preemergence, 31 g ai/ha, scale 0 to 100, 0 no effect, 100 complete control
[29] = Preemergence, 250 g ai/ha, visual, scale 0 no effect to 100 complete control

Compound: COC(=O)Oc1c(C)nn(C)c(=O)c1-c1c(C)sc2c(C)cc(C)cc12 [Compound 81]
- Plant response rating, Surinam Grass [1, 18]: 90
- Plant response rating, Surinam Grass [1, 19]: 95
- Plant response rating, Surinam Grass [1, 20]: 70
- Plant response rating, Surinam Grass [1, 21]: 95
- Plant response rating, Dayflower, VA [2, 22]: 70
- Plant response rating, Dayflower, VA [2, 23]: 15
- Plant response rating, Dayflower, VA [2, 24]: 80
- Plant response rating, Dayflower, VA [2, 25]: 35
- Plant response rating, Dayflower, VA [2, 26]: 80
- Plant response rating, Dayflower, VA [2, 27]: 60
- Plant response rating, Dayflower, VA [2, 28]: 10
- Plant response rating, Dayflower, VA [2, 29]: 65
- Plant response rating, Crabgrass, Large [3, 18]: 75
- Plant response rating, Crabgrass, Large [3, 19]: 90
- Plant response rating, Crabgrass, Large [3, 20]: 50
- Plant response rating, Crabgrass, Large [3, 21]: 98
- Plant response rating, Goosegrass [4, 18]: 40
- Plant response rating, Goosegrass [4, 19]: 70
- Plant response rating, Goosegrass [4, 20]: 20
- Plant response rating, Goosegrass [4, 21]: 80
- Plant response rating, Barnyardgrass [5, 22]: 20
- Plant response rating, Barnyardgrass [5, 23]: 25
- Plant response rating, Barnyardgrass [5, 24]: 30
- Plant response rating, Barnyardgrass [5, 25]: 35
- Plant response rating, Barnyardgrass [5, 26]: 50
- Plant response rating, Barnyardgrass [5, 27]: 20
- Plant response rating, Barnyardgrass [5, 28]: 0
- Plant response rating, Barnyardgrass [5, 29]: 75
- Plant response rating, Foxtail, Giant [6, 18]: 98
- Plant response rating, Foxtail, Giant [6, 19]: 98
- Plant response rating, Foxtail, Giant [6, 20]: 75
- Plant response rating, Foxtail, Giant [6, 21]: 100
- Plant response rating, Lambsquarters [7, 18]: 100
- Plant response rating, Lambsquarters [7, 19]: 100
- Plant response rating, Lambsquarters [7, 20]: 98
- Plant response rating, Lambsquarters [7, 21]: 100
- Plant response rating, Sandbur [8, 23]: 40
- Plant response rating, Sandbur [8, 24]: 70
- Plant response rating, Sandbur [8, 25]: 70
- Plant response rating, Sandbur [8, 26]: 75
- Plant response rating, Sandbur [8, 27]: 60
- Plant response rating, Sandbur [8, 28]: 10
- Plant response rating, Sandbur [8, 29]: 90
- Plant response rating, Panicum, Fall [9, 22]: 80
- Plant response rating, Panicum, Fall [9, 23]: 100
- Plant response rating, Panicum, Fall [9, 24]: 85
- Plant response rating, Panicum, Fall [9, 25]: 100
- Plant response rating, Panicum, Fall [9, 26]: 90
- Plant response rating, Panicum, Fall [9, 27]: 85
- Plant response rating, Panicum, Fall [9, 28]: 98
- Plant response rating, Panicum, Fall [9, 29]: 100
- Plant response rating, Pigweed, Palmer [10, 22]: 20
- Plant response rating, Pigweed, Palmer [10, 23]: 75
- Plant response rating, Pigweed, Palmer [10, 25]: 75
- Plant response rating, Pigweed, Palmer [10, 26]: 50
- Plant response rating, Pigweed, Palmer [10, 27]: 30
- Plant response rating, Pigweed, Palmer [10, 28]: 35
- Plant response rating, Pigweed, Palmer [10, 29]: 100
- Plant response rating, Nightshade [11, 18]: 90
- Plant response rating, Nightshade [11, 19]: 100
- Plant response rating, Nightshade [11, 20]: 80
- Plant response rating, Nightshade [11, 21]: 98
- Plant response rating, Horseweed [12, 22]: 75
- Plant response rating, Horseweed [12, 23]: 100
- Plant response rating, Horseweed [12, 24]: 65
- Plant response rating, Horseweed [12, 25]: 100
- Plant response rating, Horseweed [12, 26]: 85
- Plant response rating, Horseweed [12, 27]: 50
- Plant response rating, Horseweed [12, 28]: 90
- Plant response rating, Horseweed [12, 29]: 100
- Plant response rating, Morningglory [13, 18]: 85
- Plant response rating, Morningglory [13, 19]: 100
- Plant response rating, Morningglory [13, 20]: 60
- Plant response rating, Morningglory [13, 21]: 100
- Plant response rating, Corn [14, 22]: 0
- Plant response rating, Corn [14, 23]: 0
- Plant response rating, Corn [14, 24]: 5
- Plant response rating, Corn [14, 25]: 0
- Plant response rating, Corn [14, 26]: 5
- Plant response rating, Corn [14, 27]: 0
- Plant response rating, Corn [14, 28]: 0
- Plant response rating, Corn [14, 29]: 0
- Plant response rating, Velvetleaf [15, 18]: 70
- Plant response rating, Velvetleaf [15, 19]: 90
- Plant response rating, Velvetleaf [15, 20]: 10
- Plant response rating, Velvetleaf [15, 21]: 95
- Plant response rating, Arrowleaf Sida [16, 22]: 40
- Plant response rating, Arrowleaf Sida [16, 23]: 60
- Plant response rating, Arrowleaf Sida [16, 24]: 30
- Plant response rating, Arrowleaf Sida [16, 25]: 70
- Plant response rating, Arrowleaf Sida [16, 26]: 60
- Plant response rating, Arrowleaf Sida [16, 27]: 40
- Plant response rating, Arrowleaf Sida [16, 28]: 40
- Plant response rating, Arrowleaf Sida [16, 29]: 70
- Plant response rating, Ragweed [17, 22]: 60
- Plant response rating, Ragweed [17, 23]: 100
- Plant response rating, Ragweed [17, 24]: 85
- Plant response rating, Ragweed [17, 25]: 100
- Plant response rating, Ragweed [17, 26]: 80
- Plant response rating, Ragweed [17, 27]: 60
- Plant response rating, Ragweed [17, 28]: 90
- Plant response rating, Ragweed [17, 29]: 100
